Read-outs that look alike come from different tables or passages of the source.
Tests used:
DENV2 NS2B-NS3 protease = target: T1, DENV2 NS2B-NS3 protease (Dengue virus type 2, UniProt P29990); test: Protease inhibition assay (FRET peptide substrate); type: biochemical, Dengue virus serotype 2
T1 construct: made in house
Experimental: Protease Inhibition Assay. The protease inhibition assay was performed using the refolded DENV2 NS3 fusion protein (50 nM) and a fluorescence resonance energy transfer (FRET) peptide substrate (100 μM) (Abz-RRRRSAG-nTyr (NeoBiolab)), as described previously. […] 13:e1006411 (2017); and Lang et al., “Analysis of Protein-Protein Interactions by Split Luciferase Complementation Assay,” Curr. Protoc. Toxicol. 82:e (2019), all of which are hereby incorporated by reference in their entirety. Substrate cleavage was monitored at excitation/emission wavelengths of 360 nm/420 nm (Abz substrate) by a BioTek Flx800. The rate of increase in relative fluorescence unit (RFU) over time was calculated in the linear range and normalized as a percent of the DMSO control. The IC50/CC50/EC50 was determined by fitting the dose-responsive curve with a non-linear regression function using the GraphPad Prism 8 (San Diego, Calif.). All experiments were performed in triplicates.
Next, the inhibition efficacy of these positive derivatives were evaluated against the viral NS2B-NS3 protease function as previously described. […] Previously, two versions of the NS3 protease were generated, the NS3 protease domain refolded from inclusion bodies and a soluble version of the NS3 protease domain fused to maltose-binding protein (MBP). […]

[1] = WST-8 cell proliferation cytotoxicity assay; type: cell-based, human; conditions: human
Experimental: (§1) Cytotoxicity Assay. […] All experiments were performed in triplicates.
(§2) To address this concern, next the compound cytotoxicity CC50 was measured using a WST-8 cell proliferation assay, as described previously.

[2] = target: T2, DENV2 NS2B-NS3 interaction (Dengue virus type 2, UniProt P29990); test: Split luciferase complementation (SLC) NS2B-NS3 interaction assay; type: binding, Dengue virus serotype 2; conditions: concentration reducing 50% of SLC signal; read-out: IC50-SLC-(DN2)
T2 construct: GST (N); made in house

ZIKV = test: Viral titer reduction assay, ZIKV in A549 cells; type: cell-based, Zika virus
Experimental: Viral Titer Reduction Assay. A viral titer reduction assay was used to determine the compounds' effect on DENV2 and ZIKV strains, as described previously. […] Human A549 lung carcinoma cells and human primary neural progenitor cells were used, as described previously. […] All experiments were performed in triplicates.

DENV2 = test: Viral titer (plaque) reduction assay, DENV2 in A549 cells; type: cell-based, Dengue virus serotype 2
Experimental: Viral Titer Reduction Assay. A viral titer reduction assay was used to determine the compounds' effect on DENV2 and ZIKV strains, as described previously. […] Human A549 lung carcinoma cells and human primary neural progenitor cells were used, as described previously. […] 13:e1006411 (2017), which are hereby incorporated by reference in their entirety. All experiments were performed in triplicates.
A viral plaque reduction assay was performed next to evaluate the antiviral efficacy of these derivatives. Human lung carcinoma A549 cells were infected with DENV2 in the presence of a concentration series of derivatives or a dimethyl sulfoxide (DMSO) control, and viral titers were measured at 48 hrs post-infection, as described previously.

Aqueous solubility = type: physicochemical
[3] = not told
A549 cells = test: WST-8 cell proliferation cytotoxicity assay; type: cell-based, human; conditions: Table 4, preliminary SAR, A549 cells; read-out: CC50
Experimental: as §1, §2

DENV2 replicon = DENV2 replicon assay in BHK-21 cells (Renilla luciferase); type: cell-based, Dengue virus serotype 2; conditions: Dengue virus, BHK-21 replicon cells, 48 hours, read-out: EC50-DN2 (DENV2 replicon)
Experimental: DENV2 Replicon Assay. […] The cells were incubated at 37° C. in a humidified incubator with 5% CO2 for hrs in a 100 μl medium containing Minimal Essential Medium (MEM) supplemented with 10% fetal bovine serum (FBS), 100 I.U./ml penicillin, 100 g/ml streptomycin, and 300 μg/ml G418. Upon 24 hrs incubation, culture medium was discarded. Fresh culture medium of 100 μl with a concentration series of compounds or DMSO control was added to the cells in triplicates. The culture was further incubated for 48 hours. The cells were then washed twice with 100 μl phosphate-buffered saline (PBS), followed by addition of 25 μl of a lysis buffer containing 1×PBS and 1% Triton X-100. The mixture was incubated at room temperature with gentle shaking (50 rpm) for 30 minutes. Assay buffer (125 μl) containing 1×PBS, 0.05% (3-((3-cholamidopropyl) dimethylammonio)-1-propanesulfonate) (CHAPS), and 0.1% BSA was then added to each well. In the meantime, a fresh 4× working substrate coelenterazine was prepared by diluting 1 μl of stock coelenterazine (2.4 mM) dissolved in ethanol into 10 ml assay buffer (10,000-fold dilution). […] The luminescence was recorded immediately using the Veritas luminometer. The luminescence data was normalized to DMSO control. The EC50 was determined by nonlinear regression fitting of normalized experimental data in GraphPad Prism 8.0 (San Diego, Calif.). […]

in vitro = conditions: not told, Perme. (cell permeability)
[4] = Pharmacokinetics in B6 mice after oral gavage
Excerpt: Pharmacokinetics. […] Fan et al., “Contributions of Hepatic and Intestinal Metabolism to the Disposition of Niclosamide, a Repurposed Drug with Poor Bioavailability,” Drug Metab. Dispos. 47:756-763 (2019), which is hereby incorporated by reference in its entirety. […] Student's t-test was used. P values<0.05 were considered statistically significant.

[5] = refolded NS3, read-out: IC50-pro (DN2)
[6] = A549 cells, read-out: CC50 (A549)
[7] = Zika virus, A549, read-out: EC50-ZK (A549)
[8] = Dengue virus, DENV2, A549 cells, 48 hrs post-infection, read-out: EC50-DN2 (A549)
[9] = Zika virus, A549, read-out: EC50-ZK
[10] = Dengue virus, DENV2, Table 4, preliminary SAR, A549 cells, read-out: EC50-DN2
[11] = Table 4, preliminary SAR, read-out: IC50-pro(DN2)
[12] = Table 4, preliminary SAR, A549 cells, read-out: EC50-ZK
[13] = Table 4, preliminary SAR, A549 cells, read-out: EC50-DN2
[14] = female, B6, mouse, in vivo, po, 40 mg/kg

T1 sequence (P29990 1476-1654): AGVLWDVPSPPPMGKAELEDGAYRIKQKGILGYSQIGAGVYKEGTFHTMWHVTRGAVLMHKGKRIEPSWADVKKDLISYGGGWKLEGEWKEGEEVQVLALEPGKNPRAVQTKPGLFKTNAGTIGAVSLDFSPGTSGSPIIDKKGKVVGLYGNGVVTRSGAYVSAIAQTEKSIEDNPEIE
T2 sequence (P29990 1476-1654): as above

Row | SMILES | IC50 (DENV2 NS2B-NS3 protease; [5]) [µM] | CC50 [1, 6] [µM] | IC50 [2] [µM] | EC50 (ZIKV; [7]) [µM] | EC50 (DENV2; [8]) [µM] | logP (LogP) | EC50 (ZIKV; [9]) [µM] | EC50 (DENV2; [10]) [µM] | other results
1 | O=C(Nc1ccc([N+](=O)[O-])cc1Cl)c1cc(Cl)ccc1OCCN1CCOCC1 [HJC0114] | 33.6 | > 200 | 18.4 | > 30 | > 30 |  |  |  | 
2 | O=C(Nc1ccc([N+](=O)[O-])cc1Cl)c1cc(Cl)ccc1OC1CCNCC1 [HJC0125] | 44.5 | 50.2 | 16.3 | 0.15 | 0.21 |  |  |  | 
3 | Nc1ccc(NC(=O)c2cc(Cl)ccc2O)c(Cl)c1 [HJC0129] | 11.3 | 176 | 9.6 | > 30 | > 30 | 2.76 | > 30 | > 30 | 
4 | CC(=O)Nc1ccc(NC(=O)c2cc(Cl)ccc2O)c(Cl)c1 [HJC0140] |  |  |  | > 30 | > 30 | 2.47 | > 30 | > 30 | 
5 | O=C(Nc1ccc2c(c1)S(=O)(=O)C=C2)c1cc(Cl)ccc1O [HJC0149] | 20.3 | 241 | 18.6 | 1.1 | 0.9 | 2.41 | 1.1 | 0.9 | 
6 | NCCCOc1ccc(Cl)cc1C(=O)Nc1ccc([N+](=O)[O-])cc1Cl [HJC0308] | 39.7 | 17.7 | 4.9 | 6.2 | 1.4 |  |  |  | 
7 | CN1CCN(CCOc2ccc(Cl)cc2C(=O)Nc2ccc([N+](=O)[O-])cc2Cl)CC1 [HJC0365] | > 60 | 177 | 13.2 | 6 | 6.4 |  |  |  | 
8 | CN1CCC(Oc2ccc(Cl)cc2C(=O)Nc2ccc([N+](=O)[O-])cc2Cl)CC1 [HJC0381] | 25.9 | 91.1 | 10.8 | 3.9 | 1.2 | 2.38 | 3.9 | 1.2 | aqueous solubility (Aqueous solubility): significantly improves the aqueous solubility
9 | CC[C@H](N)COc1ccc(Cl)cc1C(=O)Nc1ccc([N+](=O)[O-])cc1Cl [HJC0390] | 46.5 | 30.1 | 6 | < 0.1 | 0.43 |  |  |  | 
10 | NCCCCOc1ccc(Cl)cc1C(=O)Nc1ccc([N+](=O)[O-])cc1Cl [HJC0431] | 34 | 28.4 | 3.1 | 0.36 | 2.2 | 3.9 | 0.36 | 2.2 | aqueous solubility (Aqueous solubility): significantly improves the aqueous solubility
11 | O=C(NC(Cc1ccccc1)C(=O)Nc1ccc([N+](=O)[O-])cc1Cl)c1cc(Cl)ccc1O (stereo not drawn) [JMX0285] |  |  |  |  |  | 3.84 |  |  | Perme. (cell permeability) [3]: 2.5 nm/s; IC50 (DENV2 NS2B-NS3 protease; [11]): 5.7 µM; CC50 (A549 cells): 16.5 µM; EC50 (ZIKV; [12]): 0.3 µM; EC50 (DENV2; [13]): 0.48 µM
12 | O=C(Nc1ccc(C(F)(F)F)cc1Cl)c1cc(Cl)ccc1O [JMX0308] |  |  |  |  |  | 4.49 |  |  | Perme. (cell permeability) [3]: 2.7 nm/s; EC50 (ZIKV; [12]): 0.12 µM; EC50 (DENV2; [13]): 0.09 µM
13 | O=C(Nc1cc(F)cc(C(F)(F)F)c1)c1cccc([N+](=O)[O-])c1O [JMX0317] |  |  |  |  |  | 3.26 |  |  | Perme. (cell permeability) [3]: 29 nm/s; IC50 (DENV2 NS2B-NS3 protease; [11]): 8.4 µM; CC50 (A549 cells): 20.4 µM; EC50 (ZIKV; [12]): 0.12 µM; EC50 (DENV2; [13]): 0.2 µM
14 | CC(=O)Oc1ccccc1C(=O)Nc1ncc([N+](=O)[O-])s1 [NTZ, nitazoxanide, reference compound] |  |  |  |  |  |  |  | 0.3 | logP (physchem): 2.14; CC50 [1]: 77 µM; EC50 (ZIKV; Zika virus, Table 4, preliminary SAR, A549 cells, read-out: EC50-ZK): 1.5 µM
15 | O=C(Nc1ccc([N+](=O)[O-])cc1Cl)c1cc(Cl)ccc1O [Niclosamide, reference compound] |  |  | 2 | 0.48 |  |  | 0.48 |  | logP (physchem): 3.38; EC50 (DENV2 replicon): 2 µM; CC50 (A549 cells): 4.8 µM; Papp (in vitro): 2.5 nm/s; T1/2 ± S.D. ([4]; B6 mice, single oral dose 40 mg/kg, plasma): 4.6 ± 1.0 h; AUC0→∞ ± S.D. [4, 14]: 3.5 ± 0.8; Cmax [4, 14]: 0.6 µM; Tmax ± S.D. [4, 14]: 0.7 ± 0.4 h; EC50 (DENV2; Dengue virus, DENV2, A549, 48 h, read-out: EC50-DN2 (A549)): 0.55 µM

Source: patent US11767303B2, “Compounds and methods for inhibiting viral replication and methods of treating and preventing flaviviral infections” (priority 2020, dated 2023)
